Laboratory results from patent US7259140B2, “Heparin-binding peptides and uses thereof” (Thomas Jefferson University, priority 2003, dated 2007).
Bridge positions count the residues as written; N and C are the ends. Peptide text beside a SMILES is read from it.

How the values were obtained:
[1] = tested on: Lovenox ® Activity in Blood from Patients Treated with Lovenox ®; experiment: Neutralizing Lovenox activity in blood from patients treated with Lovenox (anti-Factor Xa assay); type: biochemical, human; settings: for Lovenox ® Neutralized: Peptide 12 μg/ml
Description: Blood was obtained from volunteers who were being treated with Lovenox® for their medical conditions after obtaining signatures on informed consent forms as approved by the Institutional Review Board. The assays to test neutralization of Lovendx® were performed as described for Table 2. A dose response from 1-60 μg/ml was evaluated as in Table 2.
The dose response pattern for the effective peptides was similar to the dose response in control plasma to which Lovenox® had been added. Each data point represents the mean and standard deviation of triplicate analyses on the same sample of blood from each patient.

[2] = tested on: anti-Factor Xa Activity of the Low Molecular Weight Heparin Lovenox ®; experiment: Anti-Factor Xa assay (Stachrom Heparin kit): neutralization of Lovenox in citrate or plasma in vitro; type: biochemical, human; settings: for Lovenox ® Neutralized: Lovenox 0.7 U/ml; for anti-LMWH effect in citrate compared with plasma: Table 2A
Description: The ability of peptides such as (ARKKAAKA)3VLVLVLVL (SEQ ID NO:5) to neutralize the anti-Factor Xa activity of UFH and LMWH in vitro was tested using the Stachrom Heparin kit (Diagnostica Stago), a standard hematology laboratory assay used to measure the anti-Factor Xa activity of heparin. The assay was performed using the low molecular weight heparin enoxaparin sodium (Lovenox®, Aventis Pharmaceuticals, Inc.), unfractionated heparin (UFH), or the non-heparin glycosaminoglycan danaparoid sodium (Orgaran®, Organon Inc., West Orange, N.J.) in 0.32% citrate or in plasma anticoagulated with 0.32% citrate. Enoxaparin is commonly used clinically as a low molecular weight heparin (LMWH). Danaparoid is commonly used clinically as a non-heparin glycosaminoglycan anticoagulant. Currently, the only FDA approved drug to target UFH is protamine, which is not effective in vivo against LMWH or a non-heparin glycosaminoglycan such as danaparoid. Buffer and ATIII are added to form the heparin/ATIII complex, peptide is added, then Factor Xa, reporter dye substrate for Factor Xa activity, and stop solution, and the dye concentration is read at 405 nm. The absorbance of the dye increases with increasing Factor Xa activity, and thus is inversely proportional to the heparin (anti-Factor Xa activity) concentration. Peptides were tested in plasma obtained from three volunteers (A, B, and C). Platelet function inhibitors PG12 and theophylline were added to the blood immediately upon collection.
Results. […] (ARKKAAKA)3VLVLVLVL (SEQ ID NO:5) and VLVL(ARKKAAKA)3ARKKCAKA (SEQ ID NO:38) were able to neutralize about 0.4 U/ml anti-Factor Xa activity of LMWH at a concentration of 12 μg/ml, which would be an effective dose for patients. (AKKARA)6 (SEQ ID […]), (ARKKAAKA)4 (SEQ ID NO:31) and (ARKKAAKA)3ARKKCAKA […] 0.3-0.35 U/ml. In contrast, 12 μg protamine only neutralized about 0.25 U/ml of LMWH under these conditions.

[3] = Affinity coelectrophoresis (ACE) of peptide binding to radiolabeled low Mr heparin; set-up: species or system pig; settings: pH 7.0, mean and standard deviation of four assays, read-out: Kd (nM), affinity for low molecular weight heparin
Description: Preparation of Radiolabeled Heparin. Whole heparin from pig intestinal mucosa (Sigma) was tyramine end-labeled and radiolabeled with Na^125I (Amersham, Pharmacia Biotech, Inc., Piscataway, N.J.) to an average specific activity≅1.0×10^7 CPM/μg as described (San Antonio, J. D., et al., Biochemistry, 32:4746-4755, 1993). Radiolabeled heparin was fractionated on Sephadex G-100 (Bio-Rad Laboratories, Hercules, Calif.) and the final≅12% of material to elute was retained as the low Mr material of ≦6,000 (Jordan, R., D. Beeler, and R. Rosenberg, J. Biol. Chem., 254:2902-2913, 1979; Laurent, T. C., et al., Biochem. J., 175:691-701, 1978).
Analysis of Peptide-Heparin Interactions by Affinity Coelectrophoresis (ACE). ACE was used to study interactions between peptides and low molecular weight (low Mr) heparin (WO00/45831). In ACE, trace concentrations of radiolabeled heparin are electrophoresed through agarose lanes containing peptides at various concentrations. These analyses are used to determine the dissociation constants (Kd's). The electrophoretic patterns of radiolabeled heparin are then visualized using a phosphorimager, and the dissociation constant (Kd) corresponds to the protein concentration at which the heparin is half shifted from being fully mobile at very low protein concentrations to maximally retarded at saturating protein concentrations. The lower the Kd value, the higher the affinity.
Binding of radiolabeled heparin to peptides was studied by ACE as detailed elsewhere (San Antonio, J. D., et al., Biochemistry, 32:4746-4755, 1993). […] Briefly, peptides were dissolved in 1×ACE running buffer, 50 mM sodium 3-(N-morpholino)-2-hydroxypropanesulfonate (MOPSO, Sigma)/125 mM sodium acetate, pH 7.0, and serially diluted in running buffer at 2× concentrations. Peptides were then mixed 1:1 with 2% agarose/1% CHAPS, 3-[(3-cholamidopropyl)dimethylammonio]-1-propanesulfonate, (Boehringer Mannheim, Indianapolis, Ind.), and loaded into wells of a 1% agarose gel. Radiolabeled heparin was then loaded in a slot on the anode side of the gel, and electrophoresed through the peptide-containing wells, towards the cathode. Gels were dried and PG mobility was measured with a Phosphorimager (Molecular Dynamics, Sunnyvale, Calif.) by scanning each protein lane and determining the relative radioactivity content per 88-μm pixel through the length of the lane. Retardation coefficient (R) measurements, binding isotherm curve fittings, and apparent Kd value determinations were calculated as detailed previously (Lee, M. K., and A. D. Lander, Proc. Natl. Acad. Sci. USA, 88:2768-2772, 1991; San Antonio, J. D., et al, Biochemistry, 32:4746-4755, 1993).
Retardation coefficients (R) for the migration of low Mr 1^25I-tyramine-heparin through peptides were determined from ACE gel electrophoretograms, and are plotted against peptide concentration. Smooth curves represent non-linear least-squares fits to the equation R=R∞/{1+(Kd/[peptide])^n}.

[4] = blood of Lovenox-treated Patient Number 1
[5] = blood of Lovenox-treated Patient Number 2
[6] = blood of Lovenox-treated Patient Number 3
[7] = blood of Lovenox-treated Patient Number 4
[8] = blood of Lovenox-treated Patient Number 5
[9] = blood of Lovenox-treated Patient Number 8
[10] = blood of Lovenox-treated Patient Number 9
[11] = blood of Lovenox-treated Patient Number 10
[12] = blood of Lovenox-treated Patient Number 11

Compound	Lovenox ® Neutralized [1, 4]	Lovenox ® Neutralized [1, 5]	Lovenox ® Neutralized [1, 6]	Lovenox ® Neutralized [1, 7]	Lovenox ® Neutralized [1, 8]	Lovenox ® Neutralized [1, 9]	Lovenox ® Neutralized [1, 10]	Lovenox ® Neutralized [1, 11]	Lovenox ® Neutralized [1, 12]	Lovenox ® Neutralized ([2]; 1 μg/ml Peptide, A Plasma)	Lovenox ® Neutralized ([2]; 1 μg/ml Peptide, B Plasma)	Lovenox ® Neutralized ([2]; 1 μg/ml Peptide, C Plasma)	Lovenox ® Neutralized ([2]; 1 μg/ml Peptide, Citrate)	Lovenox ® Neutralized ([2]; 6 μg/ml Peptide, A Plasma)	Lovenox ® Neutralized ([2]; 6 μg/ml Peptide, B Plasma)	Lovenox ® Neutralized ([2]; 6 μg/ml Peptide, C Plasma)	Lovenox ® Neutralized ([2]; 6 μg/ml Peptide, Citrate)	Lovenox ® Neutralized ([2]; 12 μg/ml Peptide, A Plasma)	Lovenox ® Neutralized ([2]; 12 μg/ml Peptide, B Plasma)	Lovenox ® Neutralized ([2]; 12 μg/ml Peptide, C Plasma)	other results
C[C@@H]1NC(=O)[C@H](C)NC(=O)[C@H](CCCCN)NC(=O)[C@H](CCCCN)NC(=O)[C@H](CCCNC(=N)N)NC(=O)[C@H](C)NC(=O)[C@H](C)NC(=O)[C@H](CCCCN)NC(=O)[C@H](C)NC(=O)[C@H](C)NC(=O)[C@H](CCCCN)NC(=O)[C@H](CCCCN)NC(=O)[C@H](CCCNC(=N)N)NC(=O)[C@H](C)NC(=O)[C@@H](N)CSSC[C@@H](C(=O)O)NC(=O)[C@H](C)NC(=O)[C@H](CCCCN)NC(=O)[C@H](C)NC(=O)[C@H](C)NC(=O)[C@H](CCCCN)NC(=O)[C@H](CCCCN)NC(=O)[C@H](CCCNC(=N)N)NC(=O)[C@H](C)NC(=O)[C@H](C)NC(=O)[C@H](CCCCN)NC(=O)[C@H](C)NC(=O)[C@H](C)NC(=O)[C@H](CCCCN)NC(=O)[C@H](CCCCN)NC(=O)[C@H](CCCNC(=N)N)NC(=O)[C@H](C)NC(=O)[C@H](C)NC(=O)[C@H](CCCCN)NC1=O [C(ARKKAAKA)4C, cyclized C(ARKKAAKA)4C] (H-CARKKAAKAARKKAAKAARKKAAKAARKKAAKAC-OH; disulfide 1-34)	0.164 U/ml	0.132 U/ml	0.119 U/ml	0.337 U/ml	0.230 U/ml	0.163 U/ml	0.418 U/ml	0.302 U/ml	0.175 U/ml	0.034 ± 0.019 U/ml	0.022 ± 0.009 U/ml	0.011 ± 0.005 U/ml	0.058 ± 0.039 U/ml	0.102 ± 0.012 U/ml	0.126 ± 0.039 U/ml	0.092 ± 0.014 U/ml	0.245 ± 0.064 U/ml	0.213 ± 0.048 U/ml	0.251 ± 0.098 U/ml	0.218 ± 0.047 U/ml	Lovenox ® Neutralized ([2]; 12 μg/ml Peptide, Citrate): 0.474 ± 0.024 U/ml; Lovenox ® Neutralized ([2]; 60 μg/ml Peptide, A Plasma): 0.496 ± 0.016 U/ml; Lovenox ® Neutralized ([2]; 60 μg/ml Peptide, B Plasma): 0.506 ± 0.012 U/ml; Lovenox ® Neutralized ([2]; 60 μg/ml Peptide, C Plasma): 0.522 ± 0.009 U/ml; Lovenox ® Neutralized ([2]; 60 μg/ml Peptide, Citrate): 0.554 ± 0.023 U/ml; Lovenox ® Neutralized ([2]; 120 μg/ml Peptide, A Plasma): 0.551 ± 0.031 U/ml; Lovenox ® Neutralized ([2]; 120 μg/ml Peptide, B Plasma): 0.538 ± 0.013 U/ml; Lovenox ® Neutralized ([2]; 120 μg/ml Peptide, C Plasma): 0.592 ± 0.019 U/ml; Lovenox ® Neutralized ([2]; 120 μg/ml Peptide, Citrate): 0.525 ± 0.028 U/ml; anti-LMWH effect in citrate compared with plasma [2]: greater anti-LMWH effect in citrate than in plasma; Kd [3]: 38 ± 13 nM
Protamine [reference compound]	0.016 U/ml	0.022 U/ml	0 U/ml	0.092 U/ml	0.013 U/ml	0.018 U/ml	0.244 U/ml	0.069 U/ml	0.021 U/ml	0.038 ± 0.036 U/ml	0.086 ± 0.004 U/ml	0.070 ± 0.050 U/ml	0.050 ± 0.016 U/ml	0.177 ± 0.033 U/ml	0.200 ± 0.026 U/ml	0.232 ± 0.065 U/ml	0.256 ± 0.060 U/ml	0.232 ± 0.067 U/ml	0.249 ± 0.039 U/ml	0.285 ± 0.041 U/ml	effectiveness in neutralizing Lovenox in blood of patients [1]: neutralized Lovenox® in the blood of just one patient; Lovenox ® Neutralized ([2]; 12 μg/ml Peptide, Citrate): 0.591 ± 0.032 U/ml; anti-Factor Xa activity of LMWH neutralized ([2]; 12 μg/ml, plasma): about 0.25 U/ml; Lovenox ® Neutralized ([2]; 60 μg/ml Peptide, A Plasma): 0.515 ± 0.066 U/ml; Lovenox ® Neutralized ([2]; 60 μg/ml Peptide, B Plasma): 0.574 ± 0.022 U/ml; Lovenox ® Neutralized ([2]; 60 μg/ml Peptide, C Plasma): 0.465 ± 0.021 U/ml; Lovenox ® Neutralized ([2]; 60 μg/ml Peptide, Citrate): 0.570 ± 0.033 U/ml; Lovenox ® Neutralized ([2]; 120 μg/ml Peptide, A Plasma): 0.562 ± 0.035 U/ml; Lovenox ® Neutralized ([2]; 120 μg/ml Peptide, B Plasma): 0.592 ± 0.037 U/ml; Lovenox ® Neutralized ([2]; 120 μg/ml Peptide, C Plasma): 0.499 ± 0.16 U/ml; Lovenox ® Neutralized ([2]; 120 μg/ml Peptide, Citrate): 0.480 ± 0.058 U/ml; anti-LMWH effect in citrate compared with plasma [2]: greater anti-LMWH effect in citrate than in plasma
